The values that follow come from patent US7411069B2 (Hypnion, Inc., priority 2003, dated 2008).

For data set [1], the target named is T1, M2 muscarinic receptor (Homo sapiens, UniProt P08172).
T1 construct: purchased PerkinElmer, Inc., Wellesley, Mass; host or cells: CHO cells
T1 sequence (P08172 1-466): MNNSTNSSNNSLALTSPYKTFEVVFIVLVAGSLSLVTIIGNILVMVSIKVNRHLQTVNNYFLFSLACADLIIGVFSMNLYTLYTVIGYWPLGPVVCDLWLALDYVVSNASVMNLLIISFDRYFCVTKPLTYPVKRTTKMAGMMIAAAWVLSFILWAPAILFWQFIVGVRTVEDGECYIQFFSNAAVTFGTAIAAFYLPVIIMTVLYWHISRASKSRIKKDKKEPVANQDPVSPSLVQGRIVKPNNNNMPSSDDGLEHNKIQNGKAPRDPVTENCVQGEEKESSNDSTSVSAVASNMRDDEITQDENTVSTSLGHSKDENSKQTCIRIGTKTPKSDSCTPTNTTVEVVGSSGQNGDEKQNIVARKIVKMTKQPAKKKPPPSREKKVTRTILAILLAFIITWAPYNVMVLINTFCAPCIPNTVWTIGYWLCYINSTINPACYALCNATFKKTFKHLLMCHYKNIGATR
The experiment in a line: M2 binding assay ([3H]-scopolamine, N-methyl chloride displacement).

Data set [2] relates to Crl: CD(SD)IGS BR rats. Description: Acute rat study (toxicity and MTD, oral gavage). Type of data set: in vivo. How it is done: The purpose of this study was to evaluate the toxicity and maximum tolerated dose (MTD) of the test articles when given via oral gavage to rats. Male Crl: CD®(SD)IGS BR rats (3/group) were assigned to 5 groups. At initiation of dosing, animals were approximately 7 weeks old with body weights ranging from 172 to 206 g. Each group received either 50, 100, 150, 200, or 250 mg/kg of HY2901 once daily for 5 days. All surviving animals were sacrificed on Day 6. Assessment of toxicity was based on mortality, clinical observations, and body weight data.

Data set [3] concerns telemetered Beagle dogs. Description: ECG and arterial blood pressure in telemetered Beagle dogs. Type of data set: in vivo, dog. How it is done: To determine if HY2901 could produce any changes in QT interval, the compound was studied in telemetered Beagle dogs. Dogs were implanted with devices to continuously monitor ECG and arterial blood pressure. Dogs (groups of 4) were studied in a Latin square cross-over design, with each dog receiving 3 different doses and a placebo. Two studies were conducted with doses of 0.3, 1, 3, 10, and 30 mg/kg. […] The tachycardia persisted for 6-8 hours postdose at 0.3 and 1 mg/kg. A ceiling effect to the heart rate increase seemed to exist with heart rates peaking at approximately 150-160 in both the 10 and 30 mg/kg dose groups.

A short description of data set [4]: Pharmacokinetics in rats. As to conditions: 3 mg/kg. The format is in vivo, rat. How it is done:
HY2901 was administered to rats, dogs, and cynomolgus monkeys at a dose of 3 mg/kg orally and intravenously. Plasma samples were collected from all species for pharmacokinetic analysis. […] HY2901 is 75% protein bound in rat plasma and 60% protein bound in human plasma.

Data set [5] can be described thus: In vitro rate of metabolism in rat hepatocyte cultures. The format is in vitro ADME. How it is done: (§1) Cytochrome P450 inhibition was studied with HY2901 in vitro. […] In addition, the in vitro rate of metabolism in rat, dog, monkey, and human hepatocyte cultures was determined for HY2901.
In data set [6] the test system is purebred Beagles. Description: 14-Day dog study with recovery phase. Type of data set: in vivo. How it is done: The toxicity and the toxicokinetics of HY2901 when administered daily via oral gavage (Phase 1) or capsules (Phase 2) to dogs for at least 14 days was determined. The reversibility, persistence, or delayed occurrence of observable effects following a 7-day (Phase 1) or 14-day (Phase 2) recovery period was also assessed. Doses of 3, 10, 30, and 70 mg/kg/day were studied.

Data set [7] has as its system Crl:CD(SD)IGS BR rats. The experiment in a line: 14-Day rat study with recovery. Type of data set: in vivo. The method, then: The purpose of this study was to evaluate the toxicity of HY2901 when administered via oral gavage to rats for at least 14 days and to assess the reversibility, persistence, or delayed occurrence of any effects after a recovery period of up to 14 days.
Male and female Crl:CD®(SD)IGS BR rats were assigned to seven groups, four main study groups and three groups for toxicokinetics. Each group received dose preparations containing 0.25% methylcellulose, 400 cps in 200 mM acetate buffer, or 10, 30, or 150 mg of test article/kg of body weight (mg/kg/day) at a dose volume of 5 mL/kg.
Assessment of toxicity was based on mortality, clinical and ophthalmic observations, body weights, food consumption, clinical pathology, organ weights, and macroscopic and microscopic findings. Blood samples were collected for toxicokinetic evaluation.

Data set [8] in a line: In vitro rate of metabolism in human hepatocyte cultures. The format is in vitro ADME. How it is done: as §1
Data set [9] relates to purebred Beagles. The experiment in a line: Acute dog study (toxicity and MTD, escalating oral doses). The format is in vivo.
The nature of data set [10]: Excretion in urine of animal species. Type of data set: in vivo.
Data set [11] addresses T2, M3 muscarinic receptor (Homo sapiens, UniProt P20309).
T2 construct: purchased PerkinElmer, Inc., Wellesley, Mass; host or cells: CHO cells
Description: M3 binding assay ([3H]-scopolamine, N-methyl chloride displacement).

Data set [12] addresses hERG channel (Homo sapiens, UniProt Q12809).
Data set [13] deals with male Wistar rats. The experiment in a line: SCORE-2000 sleep-wakefulness, locomotor activity and body temperature monitoring. As to conditions: oral, CT-18.
In data set [14] the test system is male Wistar rats. Type of data set: in vivo. To be noted: oral. The method, then:
The Irwin screen can provide useful information on potential side effects of compounds on general physiological and behavioural functions. The screen was conducted by administering the test compounds orally in 0.25% aqueous methylcellulose using male Wistar rats, a frequently used species in such studies and for which background data are readily available.
The Irwin screen tests for numerous parameters in animals that have been administered the test compound. For example, the screen can include: in-cage effects, e.g., dispersion, respiratory rate, locomotor activity, restlessness, fighting, alertness, apathy, and exophthalmus; in-arena effects, e.g., transfer arousal, spatial locomotion, ptosis, startle, tail elevation, piloerection, touch escape, positional passivity, catalepsy, tighting reflex, visual placing, grip strength, pinna, corneal, pain response, and wire manoeuvre; parameters observed in handling, e.g., cyanosis, cutaneous blood flow, hypothermia, body tone, pupil size, light-pupil response, lacrimation, grooming, red staining, salivation, and provoked biting; general scores e.g., fearfulness, irritability, abnormal gait, abnormal body carriage, tremors, twitches, convulsions, bizarre behaviour, writhing, vocalisation, diarrhoea, number of defaecations, number of urinations, moribund, lethality, and abnormalities detected. Further details can be found in Irwin, S; Comprehensive observational assessment: I a. A systematic, quantitative procedure for assessing the behavioural and physiological state of the mouse. […]

Data set [15] has as its target T3, H1 histamine receptor (Bos taurus, UniProt P30546).
T3 construct: the receptors were obtained from bovine cerebellar membrane tissue; from tissue; host or cells: bovine cerebellar membranes
As to conditions: reference compounds; unit inferred; read-out: Ki, H1 binding assay reference compounds; cited from earlier work.

The mark [16] stands for this setting: 50-250 mg/kg once daily for 5 days.

The structures appear in SMILES notation. Read-outs that look alike come from different tables or passages of the source.

T3 sequence (P30546 whole entry): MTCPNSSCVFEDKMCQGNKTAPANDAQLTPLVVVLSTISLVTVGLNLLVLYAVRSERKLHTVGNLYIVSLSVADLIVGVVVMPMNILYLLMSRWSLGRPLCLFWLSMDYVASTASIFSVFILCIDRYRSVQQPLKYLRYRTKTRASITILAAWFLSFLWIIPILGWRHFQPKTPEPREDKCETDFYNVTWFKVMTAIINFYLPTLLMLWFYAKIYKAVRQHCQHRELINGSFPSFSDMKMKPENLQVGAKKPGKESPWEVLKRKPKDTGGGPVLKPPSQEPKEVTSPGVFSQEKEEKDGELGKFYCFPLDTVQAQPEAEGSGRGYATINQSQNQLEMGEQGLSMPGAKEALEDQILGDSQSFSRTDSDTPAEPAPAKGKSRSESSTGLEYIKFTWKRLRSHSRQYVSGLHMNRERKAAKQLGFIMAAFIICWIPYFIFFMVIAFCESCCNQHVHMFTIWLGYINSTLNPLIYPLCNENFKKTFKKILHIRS
T2 sequence (P20309 whole entry): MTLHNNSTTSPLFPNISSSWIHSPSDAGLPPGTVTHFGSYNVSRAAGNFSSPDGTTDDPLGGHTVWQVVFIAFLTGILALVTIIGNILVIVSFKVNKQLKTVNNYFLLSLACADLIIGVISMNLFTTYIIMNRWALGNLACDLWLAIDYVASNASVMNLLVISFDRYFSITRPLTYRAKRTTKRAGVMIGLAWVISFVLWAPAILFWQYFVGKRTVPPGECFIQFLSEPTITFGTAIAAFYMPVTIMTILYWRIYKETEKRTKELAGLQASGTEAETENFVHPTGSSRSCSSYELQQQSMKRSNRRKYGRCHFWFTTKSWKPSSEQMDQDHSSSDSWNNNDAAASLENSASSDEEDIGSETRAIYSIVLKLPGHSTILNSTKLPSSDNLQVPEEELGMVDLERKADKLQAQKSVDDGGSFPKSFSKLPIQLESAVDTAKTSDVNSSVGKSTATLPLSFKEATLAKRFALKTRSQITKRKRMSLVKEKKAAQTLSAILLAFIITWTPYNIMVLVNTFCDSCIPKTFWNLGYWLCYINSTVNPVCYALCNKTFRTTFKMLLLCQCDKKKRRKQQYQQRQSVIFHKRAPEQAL
hERG channel, sequence (Q12809 whole entry): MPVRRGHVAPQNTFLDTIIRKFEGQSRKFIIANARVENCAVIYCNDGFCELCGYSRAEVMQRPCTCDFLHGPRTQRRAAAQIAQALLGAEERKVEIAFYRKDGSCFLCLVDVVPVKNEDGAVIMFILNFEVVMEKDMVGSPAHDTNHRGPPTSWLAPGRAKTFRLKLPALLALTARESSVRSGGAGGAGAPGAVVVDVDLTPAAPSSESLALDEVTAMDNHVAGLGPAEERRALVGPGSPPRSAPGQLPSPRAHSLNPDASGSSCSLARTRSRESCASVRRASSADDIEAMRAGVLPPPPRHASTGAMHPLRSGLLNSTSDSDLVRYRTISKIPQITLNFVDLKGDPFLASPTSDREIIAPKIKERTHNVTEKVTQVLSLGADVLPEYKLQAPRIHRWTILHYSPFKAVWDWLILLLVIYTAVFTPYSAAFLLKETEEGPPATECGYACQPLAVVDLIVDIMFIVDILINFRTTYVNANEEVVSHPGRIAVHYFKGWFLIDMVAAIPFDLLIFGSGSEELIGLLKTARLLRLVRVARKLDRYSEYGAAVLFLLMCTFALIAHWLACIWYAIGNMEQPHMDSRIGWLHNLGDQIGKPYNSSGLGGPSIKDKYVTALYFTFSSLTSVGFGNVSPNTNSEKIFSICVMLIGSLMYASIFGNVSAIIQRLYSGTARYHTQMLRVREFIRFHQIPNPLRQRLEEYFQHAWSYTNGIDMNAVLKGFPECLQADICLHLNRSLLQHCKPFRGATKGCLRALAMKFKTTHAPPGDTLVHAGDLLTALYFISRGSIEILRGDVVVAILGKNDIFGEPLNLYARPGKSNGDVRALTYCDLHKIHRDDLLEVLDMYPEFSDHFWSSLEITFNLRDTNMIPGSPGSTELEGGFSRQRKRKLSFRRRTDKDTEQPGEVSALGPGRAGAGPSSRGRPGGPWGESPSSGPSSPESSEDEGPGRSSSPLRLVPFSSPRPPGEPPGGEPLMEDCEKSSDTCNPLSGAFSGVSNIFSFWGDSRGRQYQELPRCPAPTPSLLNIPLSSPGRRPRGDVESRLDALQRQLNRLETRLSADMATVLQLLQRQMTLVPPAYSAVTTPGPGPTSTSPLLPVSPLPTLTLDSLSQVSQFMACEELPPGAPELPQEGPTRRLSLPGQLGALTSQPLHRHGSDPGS

With `C[N+]1(C)C2CC(OC(=O)C(CO)c3ccccc3)CC1C1OC12.[Br-]` (single isomer, unassigned; (-)) [scopolamine, MethylBr, (−)-scopolamine, methyl-, bromide, reference compound], the “Slope, M2 binding curve” value in data set [1] is on record as −0.89.
Turning to `CC(C)(CN1CCC(=C2c3ccc(F)cc3COc3ccccc32)CC1)C(=O)O` [Compound 49a], in [2] (setting [16]), the hypoactivity result is “observed in all rats”. Besides, in data set [2] (setting [16]), the “incidence and duration of ataxia” value is “dose-response relationship was observed”. For the same compound, the “Day 6 body weights” value in [2] (two 250 mg/kg rats) is on record as “slightly decreased”. Further, the “changes in QT or corrected QT interval” value in data set [3] (0.3, 1, 3, 10 and 30 mg/kg, any dose) was “no changes”. In addition, the heart rate effect result in data set [3] (0.3-30 mg/kg, intravenous or oral) is “dose-related sinus tachycardia”. Moreover, the “persistence of tachycardia postdose” value in data set [3] (0.3 and 1 mg/kg) lay within 6 to 8 h. In data set [3] (10 and 30 mg/kg dose groups), the peak heart rate is 150-160. Also, in data set [3] (higher doses), the “persistence of sinus tachycardia” value was 10 to 12 h. In addition, in data set [3] (paralleled the tachycardia), the blood pressure result is listed as “slight increase”. Also, the “absorption after oral administration” value in [4] (all species (rat, dog, cynomolgus monkey)) is “rapidly and highly absorbed”. Moreover, the Peak plasma levels entry in data set [4] (rats, most efficacious dose in the sleep assay) is given as “less than 1.5 mM”. Also, the metabolism by hepatocytes entry is reported as “extensively metabolized” in [5] and “little metabolism” in [8]. Also, the clinical observations result was “no treatment-related clinical observations” in [6] (3 mg/kg/day, Phase 1); “treatment-related head tremors, ataxia, hypoactivity, and excessive salivation” in data set [6] (Phase 2). The survival result in data set [6] (Beagle, dog, in vivo, 14 days) is given as “survived until scheduled sacrifice”. Further, the clinical pathology data entry in [6] (Phase 1 and 2) is given as “no evidence in the clinical laboratory data of an effect”. For the same compound, in [7] (150 mg/kg/day rats, Week 1), the food consumption entry is listed as “depression in food consumption”. Further, the unscheduled deaths entry in [7] (10, 30, 150 mg/kg/day) is reported as “largely restricted to the 150 mg/kg/day groups”. Further, the “increases in Cmax and AUC(0-t) with dose” value in data set [7] (10 to 150 mg/kg/day, except Cmax at 150 mg/kg/day on Day 14) is on record as “greater than dose proportional”. Besides, the ophthalmic observations result in data set [7] (any group) is “No ophthalmic lesions”. The clinical signs result in [9] (25 mg/kg) is “No clinical signs of toxicity”; in data set [9] (40 mg/kg on Day 5), “body tremors, mild to moderate ataxia, excessive salivation and hypoactivity”; in data set [9] (50 mg/kg) it was “Body tremors, mild to severe ataxia, and hypoactivity”; in data set [9] (75 mg/kg), “Tremors (entire body, hind limbs, and/or head), mild to moderate ataxia, hypoactivity”. For the same compound, the “effect on body weight” value in [9] (dog, in vivo) was “minimal effect”. For the same compound, the “drug and metabolites in urine” value in [10] is on record as “Unchanged HY2901, as well as metabolites, has been found in the urine”.
`CC(C)(CCN1CCC(=C2c3ccccc3COc3ccccc32)CC1)C(=O)O` [Compound 70a] yielded a Ki in [11] of more than 10 µM.
`O=C(O)C1(CCN2CCC(=C3c4ccccc4COc4ccccc43)CC2)CC1` [Compound 70b] gave a hERG blocking in data set [12] of 50.2%. Moreover, the LUSB in data set [13] (dose 10 mg/kg) is 8.3 min; in [13] (dose 30 mg/kg), 13.8 min. The NREM in data set [13] (dose 10 mg/kg) is 33.7 min; in [13] (dose 30 mg/kg), 43.2 min. The “Side effects in Irwin screen” value is “clean” in [14] (10 mg/kg dose), “clean” in data set [14] (30 mg/kg dose) and “some side effects” in data set [14] (100 mg/kg dose).
In the case of `CN(C)CCCSC(=N)N` [dimaprit], the Ki in [15] is more than 10 µM.
